Molecular target: T1, PpGRXC5 (Physcomitrium patens, UniProt A0A2K1KTP0)
T1 construct: gene LOC112280307; targeting peptide removed, starts at Ala120 to native stop; Gateway vector pETG-10A, E. coli Rosetta2; tag not described; active site YCPYC
T1 sequence (A0A2K1KTP0 120-228): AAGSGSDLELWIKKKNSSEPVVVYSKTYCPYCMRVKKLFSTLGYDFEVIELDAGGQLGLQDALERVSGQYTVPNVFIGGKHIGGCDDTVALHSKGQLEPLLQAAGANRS
Test: HED assay, GR-coupled NADPH oxidation at […] nm
Assay type: biochemical
Details: 0.3-1.5 mM HED varied, 1 mM GSH constant, 200 uM NADPH, yeast GR, 30 nM enzyme, 100 mM Tris-HCl, 1 mM EDTA, pH 7.9; actual substrate is the glutathione-mercaptoethanol mixed disulfide; read-out: Km^app

Work on `OCCSSCCO` [HED, bis(2-hydroxyethyl)disulfide] yielded a Km of 390 ± 110 µM.

From paper PMC10808970, “Chloroplasts lacking class I glutaredoxins are functional but show a delayed recovery of protein cysteinyl redox state after oxidative challenge” (Redox Biology, 2023)
